We go through six compounds from patent US6465654B2, “Process for preparing 1-substituted, 2-substituted 1H-imidazo[4, 5-c]quinoline-4-amines” (3M Innovative Properties Company, priority 1991, dated 2002).

Bounds are passed on as bounds.

Assay [1] concerns vesicular stomatitis virus (VSV). As to the kind of experiment: microbe, parasite or virus in culture. It is filed as cell-based. As to conditions: Vesicular stomatitis virus, read-out: VSV Yield Inhibition.
The test system of assay [2] is interferon-α. As to the kind of experiment: Interferon-α induction in human cells, PBM. As to conditions: 24 hours. It is filed as cell-based.
Assay [3] deals with interferon. As to the kind of experiment: Interferon induction in mice. It is filed as in vivo. As to conditions: mouse serum. The method in brief: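 Interferon titres expressed as α/β reference units/mL relative to mouse MU-1-IF standard, "<" denoting undetectable. Pooled serum came from mouse groups bled at 1, 2 or 4 h, frozen at −70° C, analysed like human-cell samples.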

As for `COC(C)c1nc2c(N)nc3ccccc3c2n1CC(C)C` (stereo not drawn) [Example 66, 2-(1-Methoxyethyl)-1-(2-methylpropyl)-1H-imidazo[4,5-c]quinolin-4-amine], the log reduction at 0.1 µg/mL in assay [1] was 2. Moreover, the log reduction at 0.5 µg/mL in assay [1] came out at 2. The log reduction at 1 µg/mL in assay [1] is 3. In addition, the Interferon-α induction in assay [2] (dose concentration 0.10 μg/mL) is <5 α Reference Units/mL; in assay [2] (dose concentration 0.50 μg/mL) it was <5 α Reference Units/mL; in assay [2] (dose concentration 1.0 μg/mL) it was 1000 α Reference Units/mL; in assay [2] (dose concentration 5.0 μg/mL), 1000 α Reference Units/mL. In addition, the “Interferon induction in mice” value was less than 56 Reference Units/mL in assay [3] (oral 0.3 mg/kg, 1 hr); less than 56 Reference Units/mL in assay [3] (oral 0.3 mg/kg, 2 hr); less than 56 Reference Units/mL in assay [3] (oral 0.3 mg/kg, 4 hr); less than 56 Reference Units/mL in assay [3] (oral 1 mg/kg, 1 hr); less than 56 Reference Units/mL in assay [3] (oral 1 mg/kg, 2 hr); less than 56 Reference Units/mL in assay [3] (oral 1 mg/kg, 4 hr). Also, the “Interferon induction in mice” value in assay [3] (oral 3 mg/kg, 1 hr) is less than 74 Reference Units/mL; in assay [3] (oral 3 mg/kg, 2 hr) it was less than 120 Reference Units/mL; in assay [3] (oral 3 mg/kg, 4 hr), less than 56 Reference Units/mL; in assay [3] (oral 10 mg/kg, 1 hr), 1100 Reference Units/mL; in assay [3] (oral 10 mg/kg, 2 hr) it was 2600 Reference Units/mL; in assay [3] (oral 10 mg/kg, 4 hr), 380 Reference Units/mL.

As to `Nc1nc2ccccc2c2c1nc(CO)n2Cc1ccccc1` [Example 27, 4-Amino-1-phenylmethyl-1H-imidazo[4,5-c]-quinoline-2-methanol], the log reduction at 0.1 µg/mL in assay [1] came out at 4. For the same compound, the log reduction at 0.5 µg/mL in assay [1] came out at 3. Besides, in assay [1], the log reduction at 1 µg/mL stood at 4. The Interferon-α induction in assay [2] (dose concentration 0.01 μg/mL) was <4 α Reference Units/mL; in assay [2] (dose concentration 0.05 μg/mL), 24 α Reference Units/mL; in assay [2] (dose concentration 0.10 μg/mL), 3300 α Reference Units/mL; in assay [2] (dose concentration 0.50 μg/mL), 550 α Reference Units/mL; in assay [2] (dose concentration 1.0 μg/mL) it was 370 α Reference Units/mL; in assay [2] (dose concentration 5.0 μg/mL) it was 490 α Reference Units/mL. The “Interferon induction in mice” value in assay [3] (oral 0.3 mg/kg, 1 hr) is less than 45 Reference Units/mL; in assay [3] (oral 0.3 mg/kg, 2 hr), less than 45 Reference Units/mL; in assay [3] (oral 0.3 mg/kg, 4 hr), less than 45 Reference Units/mL; in assay [3] (oral 1 mg/kg, 1 hr), less than 45 Reference Units/mL; in assay [3] (oral 1 mg/kg, 2 hr) it was less than 45 Reference Units/mL; in assay [3] (oral 1 mg/kg, 4 hr), less than 45 Reference Units/mL. The “Interferon induction in mice” value is less than 59 Reference Units/mL in assay [3] (oral 3 mg/kg, 1 hr); 230 Reference Units/mL in assay [3] (oral 3 mg/kg, 2 hr); less than 45 Reference Units/mL in assay [3] (oral 3 mg/kg, 4 hr); 130 Reference Units/mL in assay [3] (oral 10 mg/kg, 1 hr); 690 Reference Units/mL in assay [3] (oral 10 mg/kg, 2 hr); less than 45 Reference Units/mL in assay [3] (oral 10 mg/kg, 4 hr).

In the case of `CC(C)(O)Cn1c(CO)nc2c(N)nc3ccccc3c21` [Example 90, 4-Amino-α,α-dimethyl-2-hydroxymethyl-1H-imidazo[4,5-c]quinoline-1-ethanol], the log reduction at 0.1 µg/mL in assay [1] worked out at 5. In assay [1], the log reduction at 0.5 µg/mL was 4. Besides, in assay [1], the log reduction at 1 µg/mL was 5. In addition, the Interferon-α induction in assay [2] (dose concentration 0.01 μg/mL) was <6.4 α Reference Units/mL; in assay [2] (dose concentration 0.05 μg/mL) it was 640 α Reference Units/mL; in assay [2] (dose concentration 0.10 μg/mL) it was 3000 α Reference Units/mL; in assay [2] (dose concentration 0.50 μg/mL), 640 α Reference Units/mL; in assay [2] (dose concentration 1.0 μg/mL) it was 420 α Reference Units/mL; in assay [2] (dose concentration 5.0 μg/mL), 580 α Reference Units/mL. The “Interferon induction in mice” value is less than 74 Reference Units/mL in assay [3] (oral 0.3 mg/kg, 1 hr); less than 74 Reference Units/mL in assay [3] (oral 0.3 mg/kg, 2 hr); less than 74 Reference Units/mL in assay [3] (oral 0.3 mg/kg, 4 hr); less than 74 Reference Units/mL in assay [3] (oral 1 mg/kg, 1 hr); less than 74 Reference Units/mL in assay [3] (oral 1 mg/kg, 2 hr); less than 74 Reference Units/mL in assay [3] (oral 1 mg/kg, 4 hr). For the same compound, the “Interferon induction in mice” value is “≦130 Reference Units/mL” in assay [3] (oral 3 mg/kg, 1 hr); 570 Reference Units/mL in assay [3] (oral 3 mg/kg, 2 hr); “≦74 Reference Units/mL” in assay [3] (oral 3 mg/kg, 4 hr); 750 Reference Units/mL in assay [3] (oral 10 mg/kg, 1 hr); 3500 Reference Units/mL in assay [3] (oral 10 mg/kg, 2 hr); “≦140 Reference Units/mL” in assay [3] (oral 10 mg/kg, 4 hr).

As to `CCOCc1nc2c(N)nc3cc(Cl)ccc3c2n1CC(C)(C)O` [Example 85, 4-Amino-7-chloro-α,α-dimethyl-2-ethoxymethyl-1H-imidazo[4,5-c]quinoline-1-ethanol], the log reduction at 0.1 µg/mL in assay [1] worked out at 5. In addition, in assay [1], the log reduction at 0.5 µg/mL was determined as 5. For the same compound, in assay [1], the log reduction at 1 µg/mL worked out at 5. Moreover, the Interferon-α induction in assay [2] (dose concentration 0.10 μg/mL) is listed as 86 α Reference Units/mL; in assay [2] (dose concentration 0.50 μg/mL), 100 α Reference Units/mL; in assay [2] (dose concentration 1.0 μg/mL), 220 α Reference Units/mL; in assay [2] (dose concentration 5.0 μg/mL), 230 α Reference Units/mL. For the same compound, the “Interferon induction in mice” value is 670 Reference Units/mL in assay [3] (oral 0.3 mg/kg, 1 hr); 670 Reference Units/mL in assay [3] (oral 0.3 mg/kg, 2 hr); less than 250 Reference Units/mL in assay [3] (oral 0.3 mg/kg, 4 hr); “˜980 Reference Units/mL” in assay [3] (oral 1 mg/kg, 1 hr); 3900 Reference Units/mL in assay [3] (oral 1 mg/kg, 2 hr); “≦330 Reference Units/mL” in assay [3] (oral 1 mg/kg, 4 hr). The “Interferon induction in mice” value in assay [3] (oral 3 mg/kg, 1 hr) is reported as 1500 Reference Units/mL; in assay [3] (oral 3 mg/kg, 2 hr), 4300 Reference Units/mL; in assay [3] (oral 3 mg/kg, 4 hr), “˜430 Reference Units/mL”; in assay [3] (oral 10 mg/kg, 1 hr), 2200 Reference Units/mL; in assay [3] (oral 10 mg/kg, 2 hr), 5700 Reference Units/mL; in assay [3] (oral 10 mg/kg, 4 hr), “˜570 Reference Units/mL”.

For the compound `COCc1nc2c(N)nc3ccccc3c2n1CC(C)(C)O` [Example 96, 4-Amino-α,α-dimethyl-2-methoxymethyl-1H-imidazo[4,5-c]quinoline-1-ethanol], in assay [1], the log reduction at 0.1 µg/mL came to 6. Also, the log reduction at 0.5 µg/mL in assay [1] turned out to be 5. In addition, the log reduction at 1 µg/mL in assay [1] turned out to be 5. Moreover, the Interferon-α induction is given as <6.4 α Reference Units/mL in assay [2] (dose concentration 0.01 μg/mL); 44 α Reference Units/mL in assay [2] (dose concentration 0.05 μg/mL); 1200 α Reference Units/mL in assay [2] (dose concentration 0.10 μg/mL); 460 α Reference Units/mL in assay [2] (dose concentration 0.50 μg/mL); 1000 α Reference Units/mL in assay [2] (dose concentration 1.0 μg/mL); 900 α Reference Units/mL in assay [2] (dose concentration 5.0 μg/mL). For the same compound, the “Interferon induction in mice” value in assay [3] (oral 0.3 mg/kg, 1 hr) is 2900 Reference Units/mL; in assay [3] (oral 0.3 mg/kg, 2 hr) it was 3400 Reference Units/mL; in assay [3] (oral 0.3 mg/kg, 4 hr), 620 Reference Units/mL; in assay [3] (oral 1 mg/kg, 1 hr), 3200 Reference Units/mL; in assay [3] (oral 1 mg/kg, 2 hr) it was 5000 Reference Units/mL; in assay [3] (oral 1 mg/kg, 4 hr) it was 1100 Reference Units/mL. The “Interferon induction in mice” value is 3000 Reference Units/mL in assay [3] (oral 3 mg/kg, 1 hr); 10000 Reference Units/mL in assay [3] (oral 3 mg/kg, 2 hr); 960 Reference Units/mL in assay [3] (oral 3 mg/kg, 4 hr); 2900 Reference Units/mL in assay [3] (oral 10 mg/kg, 1 hr); 4700 Reference Units/mL in assay [3] (oral 10 mg/kg, 2 hr); “˜350 Reference Units/mL” in assay [3] (oral 10 mg/kg, 4 hr).

On to `CC(=O)NCc1nc2c(N)nc3ccccc3c2n1CC(C)C` [Example 15, N-Acetyl-4-amino-1-(2-methylpropyl)-1H-imidazo-[4,5-c]quinoline-2-methanamine], for which the log reduction at 1 µg/mL in assay [1] came to 6. Moreover, in assay [1], the log reduction at 5 µg/mL came to 5. Besides, the log reduction at 10 µg/mL in assay [1] turned out to be 5. Besides, the Interferon-α induction in assay [2] (dose concentration 0.10 μg/mL) is <1.8 α Reference Units/mL; in assay [2] (dose concentration 0.50 μg/mL), 250 α Reference Units/mL; in assay [2] (dose concentration 1.0 μg/mL), 430 α Reference Units/mL; in assay [2] (dose concentration 5.0 μg/mL), 750 α Reference Units/mL. The “Interferon induction in mice” value is reported as less than 120 Reference Units/mL in assay [3] (oral 0.3 mg/kg, 1 hr); less than 120 Reference Units/mL in assay [3] (oral 0.3 mg/kg, 2 hr); less than 120 Reference Units/mL in assay [3] (oral 0.3 mg/kg, 4 hr); less than 120 Reference Units/mL in assay [3] (oral 1 mg/kg, 1 hr); less than 120 Reference Units/mL in assay [3] (oral 1 mg/kg, 2 hr); less than 120 Reference Units/mL in assay [3] (oral 1 mg/kg, 4 hr). Moreover, the “Interferon induction in mice” value in assay [3] (oral 3 mg/kg, 1 hr) was less than 120 Reference Units/mL; in assay [3] (oral 3 mg/kg, 2 hr) it was 270 Reference Units/mL; in assay [3] (oral 3 mg/kg, 4 hr) it was less than 120 Reference Units/mL; in assay [3] (oral 10 mg/kg, 1 hr), 270 Reference Units/mL; in assay [3] (oral 10 mg/kg, 2 hr) it was 3100 Reference Units/mL; in assay [3] (oral 10 mg/kg, 4 hr), 270 Reference Units/mL.
